These results are taken from patent publication US20250000858A1, “FGFR TYROSINE KINASE INHIBITORS FOR THE TREATMENT OF ADVANCED SOLID TUMORS” (JANSSEN PHARMACEUTICA NV, priority 2021, published 2025).

The structures appear in SMILES notation. Where two headings read alike, the source gives them in different places.

Where [1] appears, read: 144 treated BPC subjects (safety analysis set).
The mark [2] stands for this setting: Broad Panel Cohort, 178 treated subjects, % of subjects, AE outcome of Fatal.

Procedure: The following results include data from an efficacy analysis set and a safety analysis set. […] All subjects in the efficacy analysis set were treated and followed until the clinical cut-off date in accordance with the protocol, in order to provide adequate follow-up of at least 5 months of objective evidence of clinical activity on all subjects.

`COc1cc(OC)cc(N(CCNC(C)C)c2ccc3ncc(-c4cnn(C)c4)nc3c2)c1` [erdafitinib, N-(3,5-dimethoxy-phenyl)-N′-(1-methylethyl)-N-[3-(1-methyl-1H-pyrazol-4-yl)quinoxalin-6-yl]ethane-1,2-diamine]: the “TEAEs leading to death” value (13 patients, BPC n=178, IA3) is listed as 7.3%. Moreover, under setting [1], the “Drug-related serious TEAEs” value was 6.3%, the “diarrhea (TEAE)” value is reported as 54.2%, the “drug related TEAEs leading to death” value is on record as “no drug related TEAEs leading to death” and the “drug-related TEAEs leading to discontinuation” value was determined as 3.5%. Moreover, under setting [1], the “hyperphosphatemia (TEAE)” value is reported as 65.3% and the “stomatitis (TEAE)” value is on record as 49.3%. For the same compound, under setting [2], the “TEAEs leading to death” value is given as 13 (7.3%) and the “TEAEs leading to death: Drug-related” value is recorded as 1 (0.6%).
